Measured values taken from article PMC3914206.

Key:
Assay type in all cases: binding
panel of 442 kinases [1] = biological target: T1, panel of 442 kinases (Homo sapiens, UniProt P00533, DEL752-759); conditions: Compound Concentration 10 µM
T1 construct: purchased KINOMEscan
Description: (§1) We assessed the selectivity of members of this scaffold using the KINOMEscan methodology across a near comprehensive panel of 442 kinases [[18,27]].

panel of 442 kinases [2] = biological target: T2, panel of 442 kinases (Homo sapiens, UniProt P42336, M1043I); conditions: Compound Concentration 10 µM
T2 construct: purchased KINOMEscan
Description: as §1

panel of 442 kinases [3] = biological target: T3, panel of 442 kinases (Homo sapiens, UniProt P49674); conditions: Compound Concentration 10 µM
T3 construct: purchased KINOMEscan
Description: as §1

panel of 442 kinases [4] = biological target: T4, panel of 442 kinases (Homo sapiens, UniProt Q9H0K1); conditions: kinase SIK2; compound concentration 10 µM
T4 construct: purchased KINOMEscan
Description: as §1

T1 sequence (P00533 with tags, fused parts or gaps DEL752-759): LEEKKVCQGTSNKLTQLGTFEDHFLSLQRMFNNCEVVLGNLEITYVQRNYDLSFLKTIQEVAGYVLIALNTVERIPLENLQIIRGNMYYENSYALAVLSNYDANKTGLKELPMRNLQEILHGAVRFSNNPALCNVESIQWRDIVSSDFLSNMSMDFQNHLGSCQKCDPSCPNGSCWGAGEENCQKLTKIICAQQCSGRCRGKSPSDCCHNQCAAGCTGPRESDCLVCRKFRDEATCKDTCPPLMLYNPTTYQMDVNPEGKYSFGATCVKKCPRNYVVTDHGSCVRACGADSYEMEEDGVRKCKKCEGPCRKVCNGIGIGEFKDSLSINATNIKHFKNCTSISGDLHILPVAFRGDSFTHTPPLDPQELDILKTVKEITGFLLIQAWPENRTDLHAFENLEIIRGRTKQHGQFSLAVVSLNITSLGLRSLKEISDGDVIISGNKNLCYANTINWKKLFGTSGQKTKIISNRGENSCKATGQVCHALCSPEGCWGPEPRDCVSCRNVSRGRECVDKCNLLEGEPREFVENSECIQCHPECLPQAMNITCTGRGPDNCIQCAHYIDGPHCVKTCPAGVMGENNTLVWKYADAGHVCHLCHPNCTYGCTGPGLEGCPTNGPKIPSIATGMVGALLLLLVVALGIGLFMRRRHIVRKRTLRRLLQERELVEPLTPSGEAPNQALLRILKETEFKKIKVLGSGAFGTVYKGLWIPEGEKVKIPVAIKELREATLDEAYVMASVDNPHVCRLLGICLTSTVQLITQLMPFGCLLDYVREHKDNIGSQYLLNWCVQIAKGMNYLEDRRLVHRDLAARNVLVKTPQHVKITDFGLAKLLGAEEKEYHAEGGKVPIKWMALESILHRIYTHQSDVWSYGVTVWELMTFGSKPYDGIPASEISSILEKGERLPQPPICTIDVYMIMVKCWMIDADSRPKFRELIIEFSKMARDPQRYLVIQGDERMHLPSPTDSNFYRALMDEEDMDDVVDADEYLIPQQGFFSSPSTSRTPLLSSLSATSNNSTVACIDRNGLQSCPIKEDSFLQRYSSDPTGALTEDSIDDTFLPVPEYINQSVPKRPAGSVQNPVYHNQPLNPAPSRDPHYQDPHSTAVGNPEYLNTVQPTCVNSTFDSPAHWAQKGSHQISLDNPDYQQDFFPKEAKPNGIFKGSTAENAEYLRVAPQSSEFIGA
T2 sequence (P42336 whole entry M1043I): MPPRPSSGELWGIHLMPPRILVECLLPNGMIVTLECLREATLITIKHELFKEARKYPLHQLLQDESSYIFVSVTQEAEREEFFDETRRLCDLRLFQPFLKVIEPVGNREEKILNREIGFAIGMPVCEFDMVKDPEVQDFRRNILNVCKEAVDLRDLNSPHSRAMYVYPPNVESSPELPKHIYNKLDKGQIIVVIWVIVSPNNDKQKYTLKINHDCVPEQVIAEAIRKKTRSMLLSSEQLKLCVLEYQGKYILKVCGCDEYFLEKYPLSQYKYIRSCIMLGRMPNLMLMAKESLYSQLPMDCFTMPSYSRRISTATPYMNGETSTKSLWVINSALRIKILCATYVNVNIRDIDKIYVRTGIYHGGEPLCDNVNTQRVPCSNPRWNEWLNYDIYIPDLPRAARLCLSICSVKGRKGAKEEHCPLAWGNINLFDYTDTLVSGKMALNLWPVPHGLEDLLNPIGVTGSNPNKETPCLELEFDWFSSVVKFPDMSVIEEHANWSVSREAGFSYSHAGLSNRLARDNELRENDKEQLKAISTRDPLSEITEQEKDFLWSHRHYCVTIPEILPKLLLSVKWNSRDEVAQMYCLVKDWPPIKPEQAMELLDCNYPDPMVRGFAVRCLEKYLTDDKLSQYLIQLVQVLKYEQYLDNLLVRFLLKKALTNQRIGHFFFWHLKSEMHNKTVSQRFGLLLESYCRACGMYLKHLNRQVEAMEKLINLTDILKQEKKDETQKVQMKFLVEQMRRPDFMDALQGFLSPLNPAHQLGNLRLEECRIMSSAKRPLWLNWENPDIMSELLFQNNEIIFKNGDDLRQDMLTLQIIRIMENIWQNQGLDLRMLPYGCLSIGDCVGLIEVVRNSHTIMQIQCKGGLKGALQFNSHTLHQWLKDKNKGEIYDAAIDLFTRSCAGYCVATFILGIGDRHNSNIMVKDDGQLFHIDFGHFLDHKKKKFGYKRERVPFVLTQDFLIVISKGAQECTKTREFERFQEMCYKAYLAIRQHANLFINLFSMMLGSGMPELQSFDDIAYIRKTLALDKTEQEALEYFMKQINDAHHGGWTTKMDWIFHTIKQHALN
T3 sequence (P49674 whole entry): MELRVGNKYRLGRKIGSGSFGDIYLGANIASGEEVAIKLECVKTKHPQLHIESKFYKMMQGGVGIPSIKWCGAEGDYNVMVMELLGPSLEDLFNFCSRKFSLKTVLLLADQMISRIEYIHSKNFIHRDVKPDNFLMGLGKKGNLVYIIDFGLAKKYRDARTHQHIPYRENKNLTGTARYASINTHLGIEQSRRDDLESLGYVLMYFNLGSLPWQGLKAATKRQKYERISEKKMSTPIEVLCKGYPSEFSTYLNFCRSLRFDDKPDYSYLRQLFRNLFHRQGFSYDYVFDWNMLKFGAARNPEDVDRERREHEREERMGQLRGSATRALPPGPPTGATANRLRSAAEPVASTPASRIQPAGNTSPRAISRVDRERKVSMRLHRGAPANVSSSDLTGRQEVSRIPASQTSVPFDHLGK
T4 sequence (Q9H0K1 whole entry): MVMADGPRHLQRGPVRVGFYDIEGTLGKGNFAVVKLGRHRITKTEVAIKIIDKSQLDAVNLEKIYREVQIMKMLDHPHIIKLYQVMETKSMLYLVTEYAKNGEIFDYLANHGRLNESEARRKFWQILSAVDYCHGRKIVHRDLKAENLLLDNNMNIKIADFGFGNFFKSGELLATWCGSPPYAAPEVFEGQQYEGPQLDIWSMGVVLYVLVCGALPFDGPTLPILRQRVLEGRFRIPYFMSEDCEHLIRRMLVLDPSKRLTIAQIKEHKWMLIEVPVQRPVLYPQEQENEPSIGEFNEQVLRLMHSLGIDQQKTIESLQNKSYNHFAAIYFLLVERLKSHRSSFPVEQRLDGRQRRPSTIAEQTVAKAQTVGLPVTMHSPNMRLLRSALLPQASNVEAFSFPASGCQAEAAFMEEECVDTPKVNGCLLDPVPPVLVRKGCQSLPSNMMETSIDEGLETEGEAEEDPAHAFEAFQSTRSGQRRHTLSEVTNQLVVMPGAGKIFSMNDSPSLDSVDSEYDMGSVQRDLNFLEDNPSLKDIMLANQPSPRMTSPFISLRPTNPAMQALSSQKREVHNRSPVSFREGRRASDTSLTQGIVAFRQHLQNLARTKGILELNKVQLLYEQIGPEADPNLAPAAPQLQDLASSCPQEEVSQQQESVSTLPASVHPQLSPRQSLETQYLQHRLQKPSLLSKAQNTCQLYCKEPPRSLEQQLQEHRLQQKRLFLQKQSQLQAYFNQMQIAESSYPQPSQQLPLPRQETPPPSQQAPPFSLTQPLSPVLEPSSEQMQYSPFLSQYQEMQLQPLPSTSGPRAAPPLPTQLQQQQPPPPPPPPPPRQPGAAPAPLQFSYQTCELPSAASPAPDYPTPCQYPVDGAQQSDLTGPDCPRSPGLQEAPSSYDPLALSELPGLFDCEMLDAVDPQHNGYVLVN

| SMILES | KINOMEscan: EGFR(S752-I759del) (panel of 442 kinases [1]) | KINOMEscan: PIK3CA(M1043I) (panel of 442 kinases [2]) | KINOMEscan: CSNK1E (panel of 442 kinases [3]) | % Ctrl, SIK2 (panel of 442 kinases [4]) [% Ctrl] |
| --- | --- | --- | --- | --- |
| COc1cc(C(=O)N2CCC(N3CCN(C)CC3)CC2)ccc1Nc1ncc2c(n1)N(C)c1ccccc1C(=O)N2C [15 (LRRK2-IN-1)] | 99 | 65 | 95 | 98 |
| COc1cc(C(=O)N2CCC(N3CCN(C)CC3)CC2)ccc1Nc1ncc2c(n1)N1CCc3cccc(c31)C(=O)N2C [Compound 24] | 80 | 66 | 81 | 81 |
| COc1cc(C(=O)N2CCC(N3CCN(C)CC3)CC2)ccc1Nc1ncc2c(n1)N(C1CCCC1)c1ccccc1C(=O)N2C [Compound 25, 11-cyclopentyl-2-((2-methoxy-4-(4-(4-methylpiperazin-1-yl)piperidine-1-carbonyl)phenyl)amino)-5-methyl-5H-benzo[e]pyrimido[5,4-b][1,4]diazepin-6(11H)-one] | 80 | 93 | 100 | 95 |
| CCOc1cc(C(=O)N2CCC(N3CCN(C)CC3)CC2)ccc1Nc1ncc2c(n1)N(C1CCCC1)c1ccccc1C(=O)N2C [Compound 26] | 86 | 92 | 100 | 100 |
